SMILES strings stand for the structures.

Holding throughout (type): functional, cell-based
Assay [1] has as its target T1, Taste receptor type 2 member 5 (Homo sapiens) (UniProt Q9NYW4).
T1 sequence (whole entry): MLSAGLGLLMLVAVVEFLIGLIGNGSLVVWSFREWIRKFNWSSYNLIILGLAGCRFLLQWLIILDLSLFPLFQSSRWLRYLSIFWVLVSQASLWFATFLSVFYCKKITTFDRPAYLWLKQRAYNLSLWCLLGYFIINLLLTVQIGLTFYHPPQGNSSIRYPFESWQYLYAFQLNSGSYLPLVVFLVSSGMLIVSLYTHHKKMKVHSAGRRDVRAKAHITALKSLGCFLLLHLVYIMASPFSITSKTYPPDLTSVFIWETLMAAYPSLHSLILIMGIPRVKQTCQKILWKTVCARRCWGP
Kind of assay: Agonist activity at human TAS2R5 expressed in HEK293T cells co-expressing Galpha15 assessed as increase in intracellular calcium level at 20 mM by Calcium-3 dye based fluorescence assay relative to control.

The target in assay [2] is T2, Taste receptor type 2 member 60 (Homo sapiens) (UniProt P59551).
T2 sequence (whole entry): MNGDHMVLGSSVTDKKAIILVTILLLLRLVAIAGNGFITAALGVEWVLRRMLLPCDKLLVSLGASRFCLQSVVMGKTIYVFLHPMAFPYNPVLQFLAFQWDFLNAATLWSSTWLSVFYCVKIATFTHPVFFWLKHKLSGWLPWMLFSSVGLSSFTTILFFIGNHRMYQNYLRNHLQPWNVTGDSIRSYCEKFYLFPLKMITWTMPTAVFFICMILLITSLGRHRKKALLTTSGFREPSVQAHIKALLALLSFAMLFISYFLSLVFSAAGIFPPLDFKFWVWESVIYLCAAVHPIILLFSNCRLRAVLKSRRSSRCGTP
Put plainly: Agonist activity at human TAS2R60 expressed in HEK293T cells co-expressing Galpha15 assessed as increase in intracellular calcium level at 20 mM by Calcium-3 dye based fluorescence assay relative to control.

Assay [3] concerns the target T3, Taste receptor type 2 member 43 (Homo sapiens) (UniProt P59537).
T3 sequence (whole entry): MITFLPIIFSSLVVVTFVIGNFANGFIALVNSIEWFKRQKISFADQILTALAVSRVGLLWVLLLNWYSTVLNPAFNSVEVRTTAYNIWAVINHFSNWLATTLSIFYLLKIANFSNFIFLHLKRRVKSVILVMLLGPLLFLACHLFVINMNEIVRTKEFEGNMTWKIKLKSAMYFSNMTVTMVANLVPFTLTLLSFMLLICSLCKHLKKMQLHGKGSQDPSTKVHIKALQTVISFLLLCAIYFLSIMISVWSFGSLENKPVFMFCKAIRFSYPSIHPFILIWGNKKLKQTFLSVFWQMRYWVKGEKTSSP
Kind of assay: Agonist activity at human TAS2R43 expressed in HEK293T cells co-expressing Galpha15 assessed as increase in intracellular calcium level at 20 mM by Calcium-3 dye based fluorescence assay relative to control. In general terms: A change in cytosolic calcium serves as a functional read-out for many receptors and channels.

The target of assay [4] is T4, Taste receptor type 2 member 3 (Homo sapiens) (UniProt Q9NYW6).
T4 sequence (whole entry): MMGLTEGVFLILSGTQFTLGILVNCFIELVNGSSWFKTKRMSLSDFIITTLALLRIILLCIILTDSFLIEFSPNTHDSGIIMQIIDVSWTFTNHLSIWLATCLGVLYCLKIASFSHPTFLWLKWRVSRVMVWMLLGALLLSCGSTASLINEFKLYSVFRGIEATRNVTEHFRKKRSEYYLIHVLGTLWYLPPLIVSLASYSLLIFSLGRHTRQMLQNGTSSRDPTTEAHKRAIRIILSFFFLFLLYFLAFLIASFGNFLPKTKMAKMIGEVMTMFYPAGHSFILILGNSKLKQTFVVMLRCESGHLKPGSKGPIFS
Put plainly: Agonist activity at human TAS2R3 expressed in HEK293T cells co-expressing Galpha15 assessed as increase in intracellular calcium level at 20 mM by Calcium-3 dye based fluorescence assay relative to control.

Assay [5] has as its target T5, Taste receptor type 2 member 50 (Homo sapiens) (UniProt P59544).
T5 sequence (whole entry): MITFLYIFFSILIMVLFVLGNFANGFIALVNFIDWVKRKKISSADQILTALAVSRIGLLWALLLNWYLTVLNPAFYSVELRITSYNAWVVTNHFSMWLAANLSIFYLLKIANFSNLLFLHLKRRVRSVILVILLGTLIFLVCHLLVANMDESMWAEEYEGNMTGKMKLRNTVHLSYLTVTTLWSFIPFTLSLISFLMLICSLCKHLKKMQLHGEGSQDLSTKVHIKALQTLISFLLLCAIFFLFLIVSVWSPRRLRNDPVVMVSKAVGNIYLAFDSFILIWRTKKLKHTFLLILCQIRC
Put plainly: Agonist activity at human TAS2R50 expressed in HEK293T cells co-expressing Galpha15 assessed as increase in intracellular calcium level at 20 mM by Calcium-3 dye based fluorescence assay relative to control.

Assay [6] has as its target T6, Taste receptor type 2 member 30 (Homo sapiens) (UniProt P59541).
T6 sequence (whole entry): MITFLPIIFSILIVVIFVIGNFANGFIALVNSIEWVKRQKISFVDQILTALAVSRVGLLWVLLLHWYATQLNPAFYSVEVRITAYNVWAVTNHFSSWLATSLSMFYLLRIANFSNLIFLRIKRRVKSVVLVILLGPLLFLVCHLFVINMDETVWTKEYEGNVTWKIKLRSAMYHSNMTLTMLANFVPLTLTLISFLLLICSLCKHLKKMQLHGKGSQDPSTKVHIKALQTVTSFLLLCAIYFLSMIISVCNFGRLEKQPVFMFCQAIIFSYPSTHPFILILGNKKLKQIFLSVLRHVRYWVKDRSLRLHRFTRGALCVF
Kind of assay: Agonist activity at human TAS2R47 expressed in HEK293T cells co-expressing Galpha15 assessed as increase in intracellular calcium level at 20 mM by Calcium-3 dye based fluorescence assay relative to control.

The target in assay [7] is T7, Taste receptor type 2 member 14 (Homo sapiens) (UniProt Q9NYV8).
T7 sequence (whole entry): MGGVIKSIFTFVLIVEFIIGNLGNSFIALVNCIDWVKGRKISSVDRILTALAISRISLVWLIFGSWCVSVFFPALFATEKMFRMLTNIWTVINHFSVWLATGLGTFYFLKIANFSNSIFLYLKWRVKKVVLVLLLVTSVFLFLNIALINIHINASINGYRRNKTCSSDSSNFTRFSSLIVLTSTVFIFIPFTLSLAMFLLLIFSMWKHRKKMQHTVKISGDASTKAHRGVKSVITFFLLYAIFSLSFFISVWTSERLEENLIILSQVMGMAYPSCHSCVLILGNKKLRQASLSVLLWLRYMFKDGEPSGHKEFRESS
Kind of assay: Agonist activity at human TAS2R14 expressed in HEK293T cells co-expressing Galpha15 assessed as increase in intracellular calcium level at 20 mM by Calcium-3 dye based fluorescence assay relative to control.

Turning to `CC(O)C(=O)[O-].[K+]` (stereo unspecified), the Activity in assay [1] is less than 40%; in assay [2] it was greater than 40%; in assay [3], less than 40%; in assay [4], less than 40%; in assay [5], less than 40%; in assay [6] it was less than 40%. Moreover, the Activity in assay [7] was greater than 40%.

Consider `[Cl-].[K+]` [POTASSIUM CHLORIDE], for which the Activity is less than 40% in assay [1]; greater than 40% in assay [2]; less than 40% in assay [3]; less than 40% in assay [4]; less than 40% in assay [5]; less than 40% in assay [6]. Besides, in assay [7], the Activity is greater than 40%.

On to `CC1=CC(=O)NS(=O)(=O)O1`, for which the Activity in assay [1], in assay [2], in assay [3], in assay [4], in assay [5] and in assay [6] was less than 40% in each case. The Activity in assay [7] is greater than 40%.

Values taken from ChEMBL document CHEMBL4419163, “Assays for identifying compounds that modulate bitter taste” (2014).
